These results are taken from US9078864B2, “Agonists for antimicrobial peptide systems” (priority 2008, dated 2015).

Series [1] deals with CAMP gene, encoding LL-37. Description: CAMP (LL-37) mRNA expression in VA10 lung epithelial cells, real time RT-PCR. Conditions: VA10 cells, 4 mM, 24 hours. It is filed as cell-based, human. As for the experimental part: LL-37 expression in lung epithelial cells treated with different agents Lung epithelial cells (VA 10) were grown to confluency under standard conditions and the agents to be tested added at the indicated concentrations (see below). mRNA was isolated 24 hours after treatment and measured by real time reverse transcription PCR.
Six-well plates were seeded with 1.0×10^6 cells per well and grown for two days. Medium was then exchanged and different wells were left untreated, supplemented with 2 mM sodium butyrate or 2 mM sodium 4-phenylbutyrate. The cells were incubated for 48 h and total RNA was prepared using the RNEasy kit (Qiagen). Total RNA concentrations were measured using the Quant-iT RiboGreen RNA assay kit (Invitrogen). Superscript III first-strand synthesis system (Invitrogen) was used to synthesize cDNA using random primers according to the protocol of the manufacturer. […] Results were normalized to total RNA quantity, presented as relative fold induction of untreated control cells.
Total RNA was isolated from the cells and CAMP mRNA expression levels analyzed by real time RT-PCR.
A general note: In qPCR the cycle at which signal appears reflects the starting amount.

Series [2] concerns PBA induced CAMP gene expression. Description: Inhibition of PBA induced CAMP gene expression by MAP kinase inhibitors in VA10 cells. Type of series: cell-based, human. The conditions noted are these: 20 μM inhibitor one hour prior to 4 mM PBA, 24 hours. The procedure: FIG. 6B. […] CAMP mRNA levels were determined by real time RT-PCR. Individual samples were normalized to total RNA input. Results were normalized to expression in control samples where controls were given the arbitrary value of one. Normalized data is plotted as mean+SE from three independent experiments. *: P<0.05; **: P<0.01; ***: P<0.001
The effect of inhibitors for c-Jun N-terminal kinase (JNK), p38 kinase and extracellular signal-regulated kinase ½ (ERK½) on PBA induced CAMP gene expression were also investigated as shown in FIG. 6B. One hour prior to stimulation with 4 mM PBA, VA10 cells were pre incubated with 20 μM SP600125, SB203580 or U0126 to inhibit the respective kinases. After 24 hours of incubation, total RNA was isolated and analyzed by real time RT-PCR for CAMP mRNA.

The next series concerns cathelicidin. The conditions noted are these: 4000 IU/d oral for 21 days, atopic dermatitis subjects; cited from earlier work.
Series [3] relates to CAP-18 (the rabbit homologue to LL-37). Description: Shigella infected rabbits treated with glyceryl tributyrate, CAP-18 immunohistochemistry. Type of series: in vivo. Conditions: oral, 47 μmol/kg twice daily for 3 days, Shigella flexneri 2a. As for the experimental part: Animal model: Inbred New Zealand White rabbits of either gender weighing 1.8 to 2 kg were used for the study. The animals were individually caged in a room maintained at 22-25° C. Before inclusion in the study, health status of the rabbits was determined by physical examination, culture of stool and rectal swab specimens and fecal parasitic examination. Healthy coccidia-free rabbits that were also free of enteric pathogens (e.g. Salmonella, Shigella, Vibrio cholera) were studied. Rabbits were infected with Shigella and divided into two groups, one group was treated orally with glyceryl tributyrate and the other with saline. Expression of the CAP-18 peptide and its proform in colonic and rectal tissue specimens were analyzed in healthy rabbits, in untreated infected rabbits, in infected and healthy rabbits treated with glycerol tributyrate. For analyses of toxicity effects of glycerol tributyrate healthy rabbits were also treated with this compound.
Bacterial strain and inoculum preparation: The Shigella flexneri 2a strain was isolated from stool of a patient. The strain was positive for the Serény test and Congo red binding, reflecting invasive properties (Berkhoff, H. A. and Vinal, A. C., 1986, Avian Dis. 30, 117-121)) From this stock, bacteria were subcultured on trypticase soya agar (TSA; Becton Dickinson, Sparks, Md.) plates and cultured overnight at 37° C. […]

Another series relates to LL-37 mRNA. Conditions: colonocytes in vitro; cited from earlier work.
For series [4] the following is noted: cited from earlier work.
For another series, the system named is defensin. The conditions noted are these: similar concentrations, FIG. 7 of US2002-0076393; cited from earlier work.
The subject of series [5] is shigellosis; CAP-18 (the rabbit homologue of LL-37). The conditions noted are these: rabbits; cited from earlier work.
Series [6] relates to PBA and butyrate induced CAMP gene expression. Description: Inhibition of PBA and butyrate induced CAMP gene expression by cycloheximide in VA10 cells. Type of series: cell-based, human. Conditions: 20 μg/ml one hour prior to stimulation, 24 hours. As for the experimental part:
VA10 cells were treated with 4 mM PBA or butyrate (BA) in the presence or absence of 20 μg/ml cycloheximide. CAMP mRNA levels were determined by real time RT-PCR. Individual samples were normalized to total RNA input. Results were normalized to expression in control samples (solvent) where controls were given the arbitrary value of one. Normalized data is plotted as mean plus standard error of the mean from at least three independent experiments. *: p<0.05; **: p<0.01; ***: p<0.001.
In order to assess whether the PBA and butyrate induction pathways of CAMP gene expression are direct, VA10 cells were treated with PBA or butyrate in the presence and absence of cycloheximide (CHX). After 24 hours of incubation, total RNA was isolated and CAMP mRNA levels measured using real time RT-PCR.

Structures are written as SMILES. “Also recorded” adds a separate entry of the source.

Turning to `CCC(C)(C)C(=O)O` [ST20, 2,2-dimethylbutyrate], in series [1], the “CAMP mRNA expression” value is reported as “no apparent effect”.
For `N#CC(=C(/N)Sc1ccccc1N)/C(C#N)=C(\N)Sc1ccccc1N` [U0126], in [2], the “PBA induced CAMP gene expression in presence of inhibitor” value was “significantly reduced”.
Consider `C=C1CC[C@H](O)C/C1=C/C=C1\CCC[C@]2(C)[C@@H]([C@H](C)CCCC(C)C)CC[C@@H]12` [oral vitamin D], for which, in the series on cathelicidin, the “cathelicidin expression in AD lesional skin” value is given as “statistically significant increase”.
Turning to `CCCC(=O)OCC(COC(=O)CCC)OC(=O)CCC` [tributyrylglycerol, glyceryl tributyrate], in [3], the “CAP-18 expression in surface epithelial cells of Shigella infected rabbits” value is on record as “counteracted; also recorded: reverted and/or prevented”.
Regarding `CC(C)C(=O)O` [isobutyrate], in the series on LL-37 mRNA, the “LL-37 mRNA expression” value is “increases”.
In the case of `CC(Cc1ccccc1)C(=O)O` (stereo not drawn) [ST7, α-methylhydrocinnamate], the “CAMP mRNA expression” value in series [1] is listed as “significantly increased”.
Turning to `CCCC(=O)[O-].[Na+]` [butyrate, sodium butyrate], the “LL-37 mRNA expression” value with LL-37 mRNA was “increases”. The “safety of topical (enema) dosing” value in series [4] (528 mg/day to 1.12 g/day, 2-6 weeks, adult IBD patients) is “safe with no obvious side effects”. The “safety of oral dosing” value in series [4] (daily oral dose of 4 g, colonic-targeted tablets, 6 weeks, IBD patients) was “safe and well tolerated without any adverse effects”. For the same compound, the “activity in stimulating production of defensin relative to isoleucine” value in the series with defensin was “less active than isoleucine at similar concentrations”. In series [5], the “CAP-18 in the surface epithelium” value is given as “significant upregulation”; the “clinical illness and bacterial load in the stool” value is “reduced clinical illness and bacterial load in the stool”.
For the compound `CCC(=O)O` [propionate], in the series on LL-37 mRNA, the “LL-37 mRNA expression” value was “increases”.
As to `C[C@@H]1C[C@@H]([C@H](O)CC2CC(=O)NC(=O)C2)C(=O)[C@@H](C)C1` [CHX, cycloheximide], the “PBA induced CAMP gene expression in presence of cycloheximide” value in series [6] (4 mM PBA) was “effectively blocked”. Besides, in [6] (4 mM butyrate), the “butyrate induced CAMP gene expression in presence of cycloheximide” value is reported as “effectively blocked”.
